Results as given in US10179141B2, “Certain chemical entities, compositions, and methods” (Suzhou NeuPharma Co., Ltd., priority 2010, dated 2019).
Values after ≈ are worked out from the molar mass of the structure shown.

What was measured:
[1] = Measurement of equilibrium solubility in aqueous buffer (HPLC UV); format: physicochemical; conditions: aqueous NaOAc/AcOH buffer, thermodynamic from solid, NaOAc/AcOH buffer (100 mM, pH 5.0), shaken at rt for 24 h
Experimental: The equilibrium solubility of compounds is measured in aqueous buffer. Excess amount of solid compound is added into buffer solution and the sample is briefly sonicated and then shaken at rt for 24 h. The sample is filtered and the concentration is analyzed by HPLC UV. A standard solution at 0.2 mg/mL was prepared in methanol or acetonitrile for each compound and used as an external standard for quantification. Data for bufalin and four of the compounds specifically described herein in NaOAc/AcOH buffer (100 mM, pH 5.0) is shown below.

A549 cells = assay: Inhibition of cell growth in tumor cells, MTT assay, A549; format: cell-based; conditions: Homo sapiens, 72 h compound exposure
Experimental: (§1) Inhibition of cell growth by compounds was measured using MTT assay (Mosmann, T., Journal of Immunological Methods, 1983, 65, 55-63). Tumor cell lines were purchased from ATCC (American Type Culture Collection, Manassas, Va.). All cell lines were maintained in RPMI 1640 (Hyclone) supplemented with 10% fetal bovine serum (FBS, Hyclone), glutamine (2 mM, Hyclone), and antibiotics (penicillin 100 U/mL and streptomycin 50 μg/mL) at 37° C. in a humidified atmosphere of 5% CO2 in air. Taxol (positive control, Sigma) and compounds were dissolved in DMSO (Sigma), and the final concentration of DMSO in the medium was 1%. Tumor cells were plated in 96-well plates at densities from 4000 cells/well of a 96-well plate and allowed to adhere/grow for 24 h. They were then treated with various concentrations of drug for 72 h. 3-(4,5-Dimethylthiazol-2-yl)-2,5-diphenyltetrazolium bromide (MTT, Sigma) was used to determine the number of viable cells at the time of compound addition and the number of cells remaining after 72 h compound exposure. The number of cells remaining after 72 h was compared to the number of viable cells at the time of compound addition by measuring the absorbance at 570 nm, allowing for the calculation of growth inhibition.
(§2) All concentrations of compounds were tested in triplicate and controls were averaged over 4 wells. IC50 was calculated by plotting the concentration of compound vs the percentage of inhibition in treated wells using GraphPad Prism 5.

Bcap-37 cells = assay: Inhibition of cell growth in tumor cells, MTT assay, Bcap-37; format: cell-based; conditions: Homo sapiens, Bcap37, 72 h compound exposure
Experimental: as §1, §2

tumor xenografts = assay: Inhibition of tumor growth in xenograft model; format: in vivo, BALB/c female nude mice; conditions: 10 mg/kg, Q4D × 3, i.v.
Experimental: Cells were implanted in BALB/c female nude mice and grown as tumor xenografts. When tumors achieved 150-200 mm^3, mice were assigned into treatment and control groups using randomized block design based upon their tumor volumes. Each group contained 10 tumor-bearing mice. Tumors were measured twice weekly in two dimensions using a caliper, and the tumor volume was calculated from two-dimensional measurements using the equation V=0.5×a×b^2 where a and b are the long and short diameters of the tumor, respectively. The tumor volume was then used for calculations of T/C values. The T/C value was an indication of antitumor effectiveness; T and C were the mean volume of the treated and control groups, respectively, on a given day.

Compound	solubility at 24 h [1]	IC50 (A549 cells)	IC50 (Bcap-37 cells)	other results
C[C@]12CCC(O)C[C@H]1CC[C@@H]1[C@@H]2CC[C@]2(C)[C@@H](c3ccc(=O)oc3)CC[C@]12O (some centres unmarked) [Bufalin, reference compound]	41 µg/mL (≈ 106 µM)	4.4 nM	14 nM	–
CC(C)[C@@H](N)C(=O)O[C@H]1CC[C@@]2(C)[C@H](CC[C@@H]3[C@@H]2CC[C@]2(C)[C@@H](c4ccc(=O)oc4)CC[C@]32O)C1 [(R)-(3S,5R,8R,9S,10S,13R,14S,17R)-14-hydroxy-10,13-dimethyl-17-(2-oxo-2H-pyran-5-yl)hexadecahydro-1H-cyclopenta[a]phenanthren-3-yl 2-amino-3-methylbutanoate]	–	147 nM	–	–
C[C@@H](N)C(=O)O[C@H]1CC[C@@]2(C)[C@H](CC[C@@H]3[C@@H]2CC[C@]2(C)[C@@H](c4ccc(=O)oc4)CC[C@]32O)C1 [(R)-(3S,5R,8R,9S,10S,13R,14S,17R)-14-hydroxy-10,13-dimethyl-17-(2-oxo-2H-pyran-5-yl)hexadecahydro-1H-cyclopenta[a]phenanthren-3-yl 2-aminopropanoate]	–	3.4 nM	–	–
C[C@]12CC[C@H](OC(=O)NCCN3CCOCC3)C[C@H]1CC[C@@H]1[C@@H]2CC[C@]2(C)[C@@H](c3ccc(=O)oc3)CC[C@]12O [(3S,5R,8R,9S,10S,13R,14S,17R)-14-hydroxy-10,13-dimethyl-17-(2-oxo-2H-pyran-5-yl)hexadecahydro-1H-cyclopenta[a]phenanthren-3-yl (2-morpholinoethyl)carbamate]	–	7.4 nM	–	–
CC(=O)O[C@H]1C(=O)[C@@]2(C)[C@H]([C@H](OC(=O)c3ccccc3)[C@]3(O)C[C@H](OC(=O)[C@H](O)[C@@H](NC(=O)c4ccccc4)c4ccccc4)C(C)=C1C3(C)C)[C@]1(OC(C)=O)CO[C@@H]1C[C@@H]2O [Paclitaxel]	–	–	–	T/C (tumor xenografts; mean tumor volume treated/control): 74.6%; Tumor Volume Post-treatment (tumor xenografts; nude mouse xenograft): 391 ± 43 mm^3
C[C@]12CC[C@H](OC(=O)OCCN3CCOCC3)C[C@H]1CC[C@@H]1[C@@H]2CC[C@]2(C)[C@@H](c3ccc(=O)oc3)CC[C@]12O [(3S,5R,8R,9S,10S,13R,14S,17R)-14-hydroxy-10,13-dimethyl-17-(2-oxo-2H-pyran-5-yl)hexadecahydro-1H-cyclopenta[a]phenanthren-3-yl (2-morpholinoethyl) carbonate]	–	12.2 nM	–	–
CC(C)C[C@H](N)C(=O)O[C@H]1CC[C@@]2(C)[C@H](CC[C@@H]3[C@@H]2CC[C@]2(C)[C@@H](c4ccc(=O)oc4)CC[C@]32O)C1 [(S)-(3S,5R,8R,9S,10S,13R,14S,17R)-14-hydroxy-10,13-dimethyl-17-(2-oxo-2H-pyran-5-yl)hexadecahydro-1H-cyclopenta[a]phenanthren-3-yl 2-amino-4-methylpentanoate]	–	15.1 nM	–	–
C[C@H](N)C(=O)O[C@H]1CC[C@@]2(C)[C@H](CC[C@@H]3[C@@H]2CC[C@]2(C)[C@@H](c4ccc(=O)oc4)CC[C@]32O)C1 [(S)-(3S,5R,8R,9S,10S,13R,14S,17R)-14-hydroxy-10,13-dimethyl-17-(2-oxo-2H-pyran-5-yl)hexadecahydro-1H-cyclopenta[a]phenanthren-3-yl 2-aminopropanoate]	–	–	15.9 nM	–
CC(C)C[C@@H](N)C(=O)O[C@H]1CC[C@@]2(C)[C@H](CC[C@@H]3[C@@H]2CC[C@]2(C)[C@@H](c4ccc(=O)oc4)CC[C@]32O)C1 [(R)-(3S,5R,8R,9S,10S,13R,14S,17R)-14-hydroxy-10,13-dimethyl-17-(2-oxo-2H-pyran-5-yl)hexadecahydro-1H-cyclopenta[a]phenanthren-3-yl 2-amino-4-methylpentanoate]	–	58.8 nM	–	–
C[C@]12CC[C@H](OC(=O)N3CCNCC3)C[C@H]1CC[C@@H]1[C@@H]2CC[C@]2(C)[C@@H](c3ccc(=O)oc3)CC[C@]12O [(3S,5R,8R,9S,10S,13R,14S,17R)-14-hydroxy-10,13-dimethyl-17-(2-oxo-2H-pyran-5-yl)hexadecahydro-1H-cyclopenta[a]phenanthren-3-yl piperazine-1-carboxylate]	840 µg/mL (≈ 1680 µM)	1.8 nM	–	–
C[C@]12CC[C@H](OC(=O)N3CCOCC3)C[C@H]1CC[C@@H]1[C@@H]2CC[C@]2(C)[C@@H](c3ccc(=O)oc3)CC[C@]12O [(3S,5R,8R,9S,10S,13R,14S,17R)-14-hydroxy-10,13-dimethyl-17-(2-oxo-2H-pyran-5-yl)hexadecahydro-1H-cyclopenta[a]phenanthren-3-yl morpholine-4-carboxylate]	–	–	223 nM	–
C[C@]12CC[C@H](OC(=O)OCCN3CCCC3)C[C@H]1CC[C@@H]1[C@@H]2CC[C@]2(C)[C@@H](c3ccc(=O)oc3)CC[C@]12O [(3S,5R,8R,9S,10S,13R,14S,17R)-14-hydroxy-10,13-dimethyl-17-(2-oxo-2H-pyran-5-yl)hexadecahydro-1H-cyclopenta[a]phenanthren-3-yl (2-(pyrrolidin-1-yl)ethyl) carbonate]	710 µg/mL (≈ 1350 µM)	–	10.6 nM	–
CC(C)[C@H](N)C(=O)O[C@H]1CC[C@@]2(C)[C@H](CC[C@@H]3[C@@H]2CC[C@]2(C)[C@@H](c4ccc(=O)oc4)CC[C@]32O)C1 [(S)-(3S,5R,8R,9S,10S,13R,14S,17R)-14-hydroxy-10,13-dimethyl-17-(2-oxo-2H-pyran-5-yl)hexadecahydro-1H-cyclopenta[a]phenanthren-3-yl 2-amino-3-methylbutanoate]	120 µg/mL (≈ 247 µM)	–	48.9 nM	–
C[C@]12CC[C@H](OC(=O)NCCCC(=O)O)C[C@H]1CC[C@@H]1[C@@H]2CC[C@]2(C)[C@@H](c3ccc(=O)oc3)CC[C@]12O [4-(((((3S,5R,8R,9S,10S,13R,14S,17R)-14-hydroxy-10,13-dimethyl-17-(2-oxo-2H-pyran-5-yl)hexadecahydro-1H-cyclopenta[a]phenanthren-3-yl)oxy)carbonyl)amino)butanoic Acid]	–	60 nM	–	–
C[C@]12CC[C@H](OC(=O)NCCN3CCCC3)C[C@H]1CC[C@@H]1[C@@H]2CC[C@]2(C)[C@@H](c3ccc(=O)oc3)CC[C@]12O [(3S,5R,8R,9S,10S,13R,14S,17R)-14-hydroxy-10,13-dimethyl-17-(2-oxo-2H-pyran-5-yl)hexadecahydro-1H-cyclopenta[a]phenanthren-3-yl (2-(pyrrolidin-1-yl)ethyl)carbamate]	1040 µg/mL (≈ 1970 µM)	2.8 nM	5.3 nM	–
